Measured values: patent US20080200404A1, “Novel Antimalarial 9A-Carbamoyl-Aminoalkyl and 9A-Thiocarbamoyl-Aminoalkyl Azalides” (priority 2005, published 2008)
Values after ≈ are worked out from the molar mass of the structure shown. Like-named read-outs stand apart in the source and are kept apart here. Each block holds one molecule with its values, some of them ahead of it.

What was measured:
Assay type in all cases: cell-based
[1] = system: Plasmodium falciparum TM91C235; experiment: In vitro antimalarial [3H]-hypoxanthine incorporation assay, TM91C235; settings: Plasmodium falciparum; P. falciparum TM91C235 (multiple drug resistant isolate), 72 hours exposure
Summary of the method: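 Growth was read by [3H]-hypoxanthine incorporation after 72 h total incubation, as CPM normalized to the mean of untreated infected controls. Erythrocytic-stage TM91C235 (0.4% parasitemia, 1% hematocrit, ALBUMAX medium without folate or PABA, 5% O2/5% CO2, 37° C) was first exposed 48 h to compound at three levels, 25–25,000 ng/ml, in duplicate.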

[2] = system: Plasmodium falciparum clone CDC/Sierra Leone I (D-6); experiment: In vitro antimalarial [3H]-hypoxanthine incorporation serial dilution assay, D6; settings: Plasmodium falciparum, D6, 72 h, P. falciparum D6, 72 hours exposure
Summary of the method: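 IC50 came from logistic fitting of eleven two-fold compound dilutions, read as [3H]-hypoxanthine uptake into parasite DNA relative to untreated infected wells after 72 h. Parasites were grown in A+ human erythrocytes (6%) in RPMI-1640 with plasma or ALBUMAX at 37° C, 5% CO2, 5% O2.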

[3] = system: Plasmodium falciparum clone CDC/Indochina III (W-2); experiment: In vitro antimalarial [3H]-hypoxanthine incorporation serial dilution assay, W2; settings: Plasmodium falciparum; P. falciparum W2, 72 hours exposure
From the text: The in vitro screens for intrinsic antimalarial activity were based on modifications of the procedures described by Desjardins R E, Canfield C J, Haynes J D, Chulay J D. (Quantitative assessment of antimalarial activity in vitro by a semiautomated microdilution technique. Antimicrob Agents Chemother. 1979 December; 16(6):710-8.), Chulay J D, Haynes J D, Diggs C L. (Plasmodium falciparum: Assessment of in vitro growth by [3H]hypoxanthine incorporation. Exp. Parasitol. 1983 55:138-146.), and Milhous W K, Weatherly N F, Bowdre J H, Desjardins R E. (In vitro activities of and mechanisms of resistance to antifol antimalarial drugs. Antimicrob Agents Chemother. 1985 April; 27(4):525-30.). The system was limited to the assessment of the intrinsic activity against the erythrocytic asexual life cycle (blood schizontocides). Two Plasmodium falciparum clones from CDC/Indochina III (W-2) and CDC/Sierra Leone I (D-6) (Oduola A M, Weatherly N F, Bowdre J H, Desjardins R E. Plasmodium falciparum: cloning by single-erythrocyte micromanipulation and heterogeneity in vitro. Exp Parasitol. 1988 66(1):86-95.) were used for all assays. TM91C235, a multiple drug resistant isolate from Thailand, was used for the prescreening assay. W-2 is resistant to chloroquine, quinine, and pyrimethamine and susceptible to mefloquine. D-6 tends to be more resistant to mefloquine and susceptible to chloroquine, quinine, and pyrimethamine. All documents cited in this paragraph are incorporated by reference in their entirety.
All parasites were maintained in continuous long term cultures in RPMI-1640 medium supplemented with 6% washed human A positive (A+)(erythrocytes, 25 mM Hepes, […], and 10% heat inactivated A+human plasma or ALBUMAX® (lipid-rich bovine serum albumin; Invitrogen, Carlsbad, Calif.). All cultures and assays were conducted at 37° C. under an atmosphere of 5% CO2 and 5% O2, with a balance of N2.
After the preincubation, [^3H]-hypoxanthine was added to each well of the MTP. (The assay relies on the incorporation of radiolabeled hypoxanthine by the parasites, which indicates reproduction, and inhibition of isotope incorporation was attributed to activity of known or candidate antimalarial drugs). After 72 hr of total incubation time, the MTP were frozen to lyse the erythrocytes and parasites. The parasite DNA was recovered by harvesting the lysate onto glass-fiber filter plates using a Packard FilterMate™ Cell Harvester. The radioactivity was counted on a Packard TopCount™ microplate scintillation counter. The results were recorded as counts per minutes (CPM) per well at each drug concentration divided by the arithmetic mean of the CPM from the three untreated infection parasite control wells.
The serial dilution assay was conducted using the same assay conditions and stock solution of the compound used for the preliminary screen, described above. Both the D-6 and the W-2 clones were used. The compounds were diluted two-fold over 11 different concentration ranges with a starting concentration that was based on the preliminary screen. For each drug, the concentration response profile was determined and 50% inhibitory concentrations (IC50) were determined by using a non-linear, logistic dose response analysis program. […] For each assay, the IC50 for each clone was determined against the known antimalarials chloroquine and mefloquine. These control values established the compound's relative parasite susceptibility profile compared to known antimalarials. […]
The in vitro potency of the compounds has been compared with that of azithromycin to better gauge compounds suitable for further testing. As described above, parasites were exposed for 72 hours. Data from the in vitro potency tests of azithromycin against the three parasite strains have been averaged, and these numbers have been used for identification of “active” macrolide compounds.

[4] = compared with azithromycin, read-out: IC50 D6 (class symbol)

IC50 [1]: 0.137 µg/mL
IC50 ([2]; read-out: IC50 D6): 0.7 µg/mL
IC50 [3]: 0.297 µg/mL
Compound: CC[C@H]1OC(=O)[C@H](C)[C@@H](O[C@H]2C[C@@](C)(OC)[C@@H](O)[C@H](C)O2)[C@H](C)[C@@H](O[C@@H]2O[C@H](C)C[C@H](N(C)C)[C@H]2O)[C@](C)(O)C[C@@H](C)CN(CCCNC(=S)N[C@H]2CCCC[C@@H]2OCc2ccccc2)[C@H](C)[C@@H](O)[C@]1(C)O.O=CO [Example 123]

IC50 [1]: 0.182 µg/mL
IC50 ([2]; read-out: IC50 D6): 0.274 µg/mL
IC50 [3]: 0.178 µg/mL
Compound: CC[C@H]1OC(=O)[C@H](C)[C@@H](O[C@H]2C[C@@](C)(OC)[C@@H](O)[C@H](C)O2)[C@H](C)[C@@H](O[C@@H]2O[C@H](C)C[C@H](N(C)C)[C@H]2O)[C@](C)(O)C[C@@H](C)CN(CCCNC(=S)Nc2ccc(Br)cc2)[C@H](C)[C@@H](O)[C@]1(C)O.O=CO [Example 137]

IC50 [1]: 0.0122 µg/mL (≈ 0.0118 µM)
IC50 ([2]; read-out: IC50 D6): 0.0559 µg/mL (≈ 0.0543 µM)
IC50 [3]: 0.0575 µg/mL (≈ 0.0558 µM)
Compound: CC[C@H]1OC(=O)[C@H](C)[C@@H](O[C@H]2C[C@@](C)(OC)[C@@H](O)[C@H](C)O2)[C@H](C)[C@@H](O[C@@H]2O[C@H](C)C[C@H](N(C)C)[C@H]2O)[C@](C)(O)C[C@@H](C)CN(CCCNC(=S)Nc2ccc(Cl)c(C(F)(F)F)c2)[C@H](C)[C@@H](O)[C@]1(C)O [Example 124]

Further lines, the molecule ahead of its results:

Compound: CC[C@H]1OC(=O)[C@H](C)[C@@H](O[C@H]2C[C@@](C)(OC)[C@@H](O)[C@H](C)O2)[C@H](C)[C@@H](O[C@@H]2O[C@H](C)C[C@H](N(C)C)[C@H]2O)[C@](C)(O)C[C@@H](C)CN(CCCNC(=S)Nc2ccc([N+](=O)[O-])cc2)[C@H](C)[C@@H](O)[C@]1(C)O [Example 105]
IC50 [1]: 0.0237 µg/mL (≈ 0.0244 µM)
IC50 ([2]; read-out: IC50 D6): 0.0184 µg/mL (≈ 0.0189 µM)
IC50 [3]: 0.0201 µg/mL (≈ 0.0207 µM)

Compound: CC[C@H]1OC(=O)[C@H](C)[C@@H](O[C@H]2C[C@@](C)(OC)[C@@H](O)[C@H](C)O2)[C@H](C)[C@@H](O[C@@H]2O[C@H](C)C[C@H](N(C)C)[C@H]2O)[C@](C)(O)C[C@@H](C)CN(CCCNC(=O)NC(C)(C)C)[C@H](C)[C@@H](O)[C@]1(C)O [Example 53]
IC50 [1]: 0.713 µg/mL (≈ 0.8 µM)
IC50 [2, 4]: > 0.797 µg/mL
IC50 [3]: 0.366 µg/mL (≈ 0.41 µM)

Compound: CC[C@H]1OC(=O)[C@H](C)[C@@H](O[C@H]2C[C@@](C)(OC)[C@@H](O)[C@H](C)O2)[C@H](C)[C@@H](O[C@@H]2O[C@H](C)C[C@H](N(C)C)[C@H]2O)[C@](C)(O)C[C@@H](C)CN(CCCNC(=S)NC2CC2)[C@H](C)[C@@H](O)[C@]1(C)O [Example 113]
IC50 [1]: 0.866 µg/mL (≈ 0.972 µM)
IC50 [2, 4]: > 0.797 µg/mL
IC50 [3]: 0.605 µg/mL (≈ 0.679 µM)

Compound: CC[C@H]1OC(=O)[C@H](C)[C@@H](O[C@H]2C[C@@](C)(OC)[C@@H](O)[C@H](C)O2)[C@H](C)[C@@H](O[C@@H]2O[C@H](C)C[C@H](N(C)C)[C@H]2O)[C@](C)(O)C[C@@H](C)CN(CCCNC(=O)Nc2c(C)noc2-c2ccccc2)[C@H](C)[C@@H](O)[C@]1(C)O.O=CO [Example 90]
IC50 [1]: 0.511 µg/mL
IC50 ([2]; read-out: IC50 D6): 0.972 µg/mL
IC50 [3]: 0.762 µg/mL

Compound: CCCCNC(=S)NCCCN1C[C@H](C)C[C@@](C)(O)[C@H](O[C@@H]2O[C@H](C)C[C@H](N(C)C)[C@H]2O)[C@@H](C)[C@H](O[C@H]2C[C@@](C)(OC)[C@@H](O)[C@H](C)O2)[C@@H](C)C(=O)O[C@H](CC)[C@@](C)(O)[C@H](O)[C@H]1C.O=CO [Example 96]
IC50 [1]: 0.364 µg/mL
IC50 ([2]; read-out: IC50 D6): 0.625 µg/mL
IC50 [3]: 0.179 µg/mL
